Reference: the NIST ThermoML archive (doi:10.1021/je901020a)

What was measured:
[1] = xn = mol fraction of the nth substance listed; details: 101 kPa, Liquid; for speed of sound: Pulse-echo method
[2] = refractive index (Na D-line) (dimensionless); xn = mol fraction of the nth substance listed; details: 101 kPa, Liquid, Standard Abbe refractometry

CC1CCCCC1 [methylcyclohexane] + Cc1ccc(C)cc1
Details	mass density, [1] [kg/m3]	refractive index, [2]	speed of sound, [1] [m/s]
298.15 K, x1 = 0.0513	851.4	1.48906	1303
298.15 K, x1 = 0.0979	846.7	1.48531	1297
298.15 K, x1 = 0.1917	837.2	1.47789	1285
298.15 K, x1 = 0.3009	826.5	1.46944	1272
298.15 K, x1 = 0.3971	817.3	1.46214	1262
298.15 K, x1 = 0.4963	808	1.4548	1252
298.15 K, x1 = 0.5987	798.8	1.44757	1243
298.15 K, x1 = 0.6966	789.9	1.44052	1234
298.15 K, x1 = 0.7958	781.6	1.43389	1227
298.15 K, x1 = 0.8922	773.4	1.42739	1221
298.15 K, x1 = 0.9501	768.9	1.42377	1217
298.15 K, x1 = 1	765	1.42062	1215
313.15 K, x1 = 0.0506	838.4	1.48121	1242
313.15 K, x1 = 0.1051	832.9	1.4771	1234
313.15 K, x1 = 0.204	823.1	1.46914	1221
313.15 K, x1 = 0.3096	812.6	1.46083	1209
313.15 K, x1 = 0.4064	803.4	1.45361	1198
313.15 K, x1 = 0.5061	794	1.44635	1188
313.15 K, x1 = 0.605	785.1	1.43928	1179
313.15 K, x1 = 0.7057	776.2	1.43227	1170
313.15 K, x1 = 0.8112	767.2	1.42509	1162
313.15 K, x1 = 0.9095	759	1.41853	1155
313.15 K, x1 = 0.9599	755	1.41538	1152
313.15 K, x1 = 1	751.9	1.41274	1150

Cc1ccccc1C [1,2-dimethylbenzene] + C1CCCCCCC1
x2 = 0
Details	mass density, [1] [kg/m3]	refractive index, [2]	speed of sound, [1] [m/s]
298.15 K	875.4	1.50262	1350
313.15 K	862.9	1.49466	1289

CC1CCCCC1 [methylcyclohexane] + Cc1cc(C)cc(C)c1
x1 = 1
Details	mass density, [1] [kg/m3]	refractive index, [2]	speed of sound, [1] [m/s]
298.15 K	765.1	1.42062	1215
313.15 K	751.9	1.41274	1150

C1CCCCC1 [cyclohexane] + Cc1ccccc1C
x1 = 1
Details	mass density, [1] [kg/m3]	refractive index, [2]	speed of sound, [1] [m/s]
298.15 K	773.9	1.4236	1255
313.15 K	759.6	1.41516	1182

C1CCCCC1 [cyclohexane] + Cc1cc(C)cc(C)c1
x1 = 1
Details	mass density, [1] [kg/m3]	refractive index, [2]	speed of sound, [1] [m/s]
298.15 K	773.9	1.4236	1255
313.15 K	759.6	1.41516	1182

Cc1cc(C)cc(C)c1 [1,3,5-trimethylbenzene] + C1CCCCCCC1
x2 = 0
Details	mass density, [1] [kg/m3]	refractive index, [2]	speed of sound, [1] [m/s]
298.15 K	861.1	1.49693	1336
313.15 K	848.8	1.48923	1277

C1CCCCCCC1 [cyclooctane] + Cc1cccc(C)c1
Details	mass density, [1] [kg/m3]	refractive index, [2]	speed of sound, [1] [m/s]
298.15 K, x1 = 0.0545	857.4	1.49186	1322
298.15 K, x1 = 0.0993	855.5	1.48961	1324
298.15 K, x1 = 0.2059	851.1	1.4845	1328
298.15 K, x1 = 0.3074	847.4	1.4799	1333
298.15 K, x1 = 0.3933	844.4	1.47623	1338
298.15 K, x1 = 0.5031	841	1.47176	1346
298.15 K, x1 = 0.6002	838.2	1.46806	1353
298.15 K, x1 = 0.6993	835.9	1.46461	1361
298.15 K, x1 = 0.8198	833.5	1.46072	1372
298.15 K, x1 = 0.8909	832.4	1.45869	1379
298.15 K, x1 = 0.9503	831.8	1.45714	1385
298.15 K, x1 = 1	831.5	1.45598	1391
313.15 K, x1 = 0.0506	844.7	1.48423	1260
313.15 K, x1 = 0.0888	843.1	1.48242	1262
313.15 K, x1 = 0.1861	839.3	1.47779	1265
313.15 K, x1 = 0.2924	835.4	1.47308	1270
313.15 K, x1 = 0.3795	832.4	1.46944	1275
313.15 K, x1 = 0.487	829.1	1.46522	1282
313.15 K, x1 = 0.5832	826.4	1.46159	1289
313.15 K, x1 = 0.6823	824	1.45808	1296
313.15 K, x1 = 0.7874	821.9	1.45469	1305
313.15 K, x1 = 0.8879	820.3	1.45169	1315
313.15 K, x1 = 0.9389	819.7	1.45047	1320
313.15 K, x1 = 1	819.2	1.44877	1326
